In patent US7829562B2, “Sigma ligands for neuronal regeneration and functional recovery” (M's Science Corporation, priority 2003, dated 2010):

What was measured:
[1] = target: sigma-1 site compared to the sigma-2 site (Homo sapiens, UniProt Q99720); conditions: (+) isomers of benzomorphan opiates; cited from earlier work
[2] = system: spontaneously hypertensive rats exposed to permanent middle artery occlusion (MCAO); assay: Cylinder test for asymmetric forelimb use after MCA occlusion; type: in vivo, rat; conditions: for performance in cylinder test versus control animals: 0.03-10 mg/kg s.c. or p.o. from two days after MCAO for 2-8 weeks, present-tense example
From the text: (§1) Male 3 months old SHR (spontaneous hypertensive) rats are used for induction of stroke by MCA occlusion. This is the preferred strain since most stroke patients are hypertensive. The animals are anesthetized with Methohexital and a small craniectomy is made above the zygmotic arch to expose the middle cerebral artery, which is occluded with a 10-0 monofilament nylon thread distal to the origin of the striatal branches. The rats are not intubated and no catheters are inserted. Following MCA occlusion a large and reproducible infarct is obtained, leading to a robust sensorimotor deficit. The animals are kept on a 6 hr light/18 h dark cycle with free access to food and water. At two days after the MCAO the rats are treated with the compound I, II, III, IV, V, VI, VII, VIII, or IX (0.03-10 mg/kg) s.c. or p.o. and a control group is given saline for 2-8 weeks. At 2, 4, 6 and 8 weeks animals are tested in the rotating pole or cylinder test.
The cylinder test (modified from Schallert and Tillerson (Innovative models of CNS disease: from molecule to therapy. Clifton, N.J., Humana, 1999) is used to quantify the forelimb use for rearing on the cylinder wall. The rats are monitored as they move freely in a 20-cm-wide clear glass cylinder. Contacts made by each forepaw with the cylinder wall while rearing are scored by a blinded observer. A total of 20 contacts are recorded for each animal, and the number of impaired (left), both, and non-impaired forelimb contacts as percentage of total contacts is calculated. Baseline for rats is achieved by measuring the contacts made by each forepaw before MCAO.
Forty three spontaneously hypertensive rats were exposed to permanent middle artery occlusion (MCAO), then divided into three treatment groups. Starting at two days after occlusion and continuing daily for 14 days, AGY-94806 was administered p.o. in doses of 0.1 mg/kg (14 rats) or 0.3 mg/kg (14 rats). In a control group (15 rats), vehicle only was administered. At the start of treatment, and at several time points during the test, the rats were assessed for their performance in the cylinder test. This test is described in Example 1. It measures the sensory-motor performance of the animals. The performance of the rats in the test was assessed one day before permanent MCAO, then at 14 days, 28 days and 59 days after permanent MCAO. The rats were monitored as they moved freely in a 20 cm-wide clear glass cylinder. Contacts made by each forepaw with the cylinder wall while rearing were scored by a blinded observer. A total of 20 contacts were recorded for each animal, and the number of impaired (left), both, and non-impaired forelimb contacts as a percentage of total contacts was calculated.

[3] = system: rat primary neuronal cultures; conditions: cited from earlier work
[4] = system: spontaneously hypertensive rats exposed to permanent middle artery occlusion (MCAO); assay: Rotating pole test after MCA occlusion (stroke model); type: in vivo, rat; conditions: 0.03-10 mg/kg s.c. or p.o. from two days after MCAO for 2-8 weeks; present-tense example
From the text: as §1
Cylinder Test for Asymmetric Use of Forelimb Use in Spontaneous Rearing
Thirty five spontaneously hypertensive rats were exposed to permanent middle artery occlusion (MCAO), then divided into three treatment groups. Starting at two days after occlusion and continuing daily until 28 days after occlusion, AGY-94806 was administered s.c. in doses of 0.3 mg/kg (12 rats) or 1.0 mg/kg (12 rats). In a control group (11 rats), vehicle only was administered. At the start of treatment, and at several time points during the test, the rats were assessed for their performance in the rotating pole model. This model is described in Example 1. It requires the rats to cross a horizontally suspended rotating pole having a length of 1 m. This task measures the sensory-motor performance of the animals. The animals' behaviour was recorded using a video camera and later analyzed and scored by a trained technician. The scoring ranges from 0 to 6, with 0 being very poor performance and 6 reflecting the performance of a healthy animal (without MCAO).

[5] = system: NMDA-induced toxicity and seizures; conditions: in vivo models; cited from earlier work
gerbils = conditions: cited from earlier work

sigma-1 site compared to the sigma-2 site, sequence (Q99720 whole entry): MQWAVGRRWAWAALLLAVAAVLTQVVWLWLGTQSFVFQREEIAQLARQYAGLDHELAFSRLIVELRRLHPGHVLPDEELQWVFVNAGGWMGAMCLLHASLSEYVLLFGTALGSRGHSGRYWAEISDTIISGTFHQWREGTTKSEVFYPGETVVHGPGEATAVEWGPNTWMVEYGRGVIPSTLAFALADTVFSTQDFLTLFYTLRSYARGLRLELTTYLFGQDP

CC(C)=CCN1CCC2(C)c3cc(O)ccc3CC1C2C (single isomer, unassigned; (+)) [(+)pentazocine]
affinity for the sigma-1 site compared to the sigma-2 site [1]: nearly two orders of magnitude higher affinity

COc1ccc(CCN2CCN(CCCc3ccccc3)CC2)cc1OC [AGY-94806, 1-(3,4-dimethoxyphenethyl)-4-(3-phenylpropyl) piperazine]
asymmetry of paw usage ([2]; 0.3 mg/kg p.o., all time points measured): reduced to pre-MCAO levels | performance in cylinder test versus control animals [2]: perform better | hypoxia/hypoglycemia-induced neurotoxicity [3]: significantly suppress | performance in rotating pole test versus control animals [4]: perform better

OC(CCCN1CCN(c2ncc(F)cn2)CC1)c1ccc(F)cc1 (stereo not shown) [BMY-14802]
protective effects against NMDA-induced toxicity and seizures [5]: in vivo protective effects

O=C(OCCN1CCOCC1)C1(c2ccccc2)CCCCC1 [III]
performance in cylinder test versus control animals [2]: perform better | performance in rotating pole test versus control animals [4]: perform better

O=C(NC1CCN(Cc2ccccc2)CC1)c1ccc(I)cc1 [II]
performance in cylinder test versus control animals [2]: perform better | performance in rotating pole test versus control animals [4]: perform better

COc1ccc(CN2CCN(Cc3ccccc3)CC2)c(O)c1OC [IX]
performance in cylinder test versus control animals [2]: perform better | performance in rotating pole test versus control animals [4]: perform better

COCCCC/C(=N\OCCN)c1ccc(C(F)(F)F)cc1 [I]
performance in cylinder test versus control animals [2]: perform better | performance in rotating pole test versus control animals [4]: perform better

CN(CCc1ccc(Cl)c(Cl)c1)C1CCCCC1N1CCCC1 (stereo not shown) [VIII]
performance in cylinder test versus control animals [2]: perform better | performance in rotating pole test versus control animals [4]: perform better

COc1cccc2c1CCC(=O)N2CCCN1CCN(c2cccc(Cl)c2)CC1 [VII]
performance in cylinder test versus control animals [2]: perform better | performance in rotating pole test versus control animals [4]: perform better

CCC(C/C=C/c1ccccc1)(c1ccccc1)N(C)CC1CC1 (stereo not shown) [VI]
performance in cylinder test versus control animals [2]: perform better | performance in rotating pole test versus control animals [4]: perform better

Fc1ccc(-n2cc(CCCCN3CCC4(CC3)OCc3ccccc34)c3ccccc32)cc1 [V]
performance in cylinder test versus control animals [2]: perform better | performance in rotating pole test versus control animals [4]: perform better

CCN(CC)CCOC(=O)C1(c2ccccc2)CCCC1 [caramiphen]
protective effects against NMDA-induced toxicity and seizures [5]: in vivo protective effects

O=C(CCCN1CCC(O)(c2ccc(Cl)cc2)CC1)c1ccc(F)cc1 [haloperidol]
protective effects against NMDA-induced toxicity and seizures [5]: in vivo protective effects

OCCN1CCN(CCCN2c3ccccc3C=Cc3ccccc32)CC1 [opipramol]
protection against ischemia (gerbils): protect against ischemia
